In US20090203877A1, “X-RAY-DENSE CONJUGATE” (Eberhard-Karls-Universitaet Tuebingen Universitaetsklinkum, priority 2006, published 2009):

System: human malignant U373 glioma cells
Test: Computer tomography, signal density of cell pellets
Type: cell-based

PKKKRKVK(FITC)GGK(TIBA) (FITC, GGK linker, TIBA) [conjugate 1, FITC-labelled correct NLS of the SV 40 T antigen with TIBA]
CT signal density of cell pellets (26 μM, 20 min): only low signal density values | CT signal density of cell pellets (260 μM, 20 min): significant increase in signal density | CT signal density of cell pellets (2.6 mM, 20 min): significant increase in signal density | CT signal density of cell pellets (varying concentrations (26 μM, 260 μM and 2.6 mM) and PBS alone): did result in differences in signal densities
